Experimental data published in patent US12303590B2, “Method of treating osteoarthritis” (ORTHOTROPHIX, INC., priority 2018, dated 2025).
Peptide text beside a SMILES is read from it.

Assays:
[1] = tested on: defects in human molar; settings: both Phase 2 studies (alveolar bone and dentin); cited from earlier work
[2] = tested on: subjects with bilateral patello-femoral knee osteoarthritis; test: Randomized double-blind placebo-controlled study of TPX-100 in patients with osteoarthritis of the knees (Example 1); type: in vivo, human
Experimental: A multicenter, randomized double-blind, placebo-controlled study was designed to investigate the safety, tolerability, pharmacokinetics, and efficacy of TPX-100 administered in four weekly doses in subjects with bilateral patello-femoral knee osteoarthritis. The study was conducted under an open IND (investigational new drug application) at CDER (Center for Drug Evaluation and Research) of the U.S. FDA (The United States Food and Drug Administration) in compliance with GCP (Good Clinical Practice) and ICH (International Conference on Harmonization of Technical Requirements for Registration of Pharmaceuticals for Human Use) guidelines. Eighteen (18) orthopedic, rheumatologic and family practice centers in the U.S. participated in the study.
The study was divided into Part A and Part B. The Part A was designed to evaluate safety of intra-articular (I.A.) administration of TPX-100 at different dosing levels (20, 50, 100, or 200 mg per injection in sequential cohorts) in the subjects with osteoarthritis of the knees and to select a dose for Part B. Part B was to evaluate safety and efficacy of the selected dose of TPX-100.
Subjects in Part A were enrolled in sequential cohorts and randomized to receive 20, 50, 100 or 200 mg of TPX-100 in one knee (Index Knee) and identical placebo in the contralateral (Control) knee. Subjects, sites and sponsor and central MRI readers were blinded as to treatment assignment. A Safety Review Committee (SRC) evaluated safety in each dosing cohort. The SRC assessed safety and determined whether the next higher dosing regimen could be enrolled. All dosing cohorts in Part A were completed and analyzed with regard to safety prior to dose selection and initiation of Part B.
Part A included four (4) intra-articular (I.A.) injections, one per week, in sequential dosing cohorts of 20, 50, 100 and 200 mg TPX-100 versus placebo. Six (6) subjects were enrolled in 20, 50, and 100 mg cohorts, respectively, and nine (9) subjects were enrolled in the 200 mg cohort.
The 200 mg dose was selected for Part B based on safety review and the approval of the SRC. […] Per the Statistical Analysis Plan, these subjects were combined with the nine subjects in the 200 mg cohort of Part A for the efficacy analysis. In total, data from 93 subjects was analyzed for drug efficacy, each of whom received 4 once-weekly injections of TPX-100, 200 mg/dose, in the Index knee and identical placebo in the contralateral knee, as randomly assigned. […]
If all clinical inclusion and exclusion criteria were met, MRIs of both knees were obtained and evaluated by a central reader to determine the ICRS grade (gICRS) of each knee as the final screening criterion. […]

[3] = tested on: standardized large cartilage defects; settings: in vivo; cited from earlier work
[4] = human, in vivo; cited from earlier work
[5] = tested on: human osteoblastic mesenchymal stem cells; settings: U.S. Pat. Nos. 7,888,462 and 8,426,558; cited from earlier work

CC[C@H](C)[C@H](NC(=O)[C@H](CC(=O)O)NC(=O)[C@H](CC(N)=O)NC(=O)[C@H](CC(=O)O)NC(=O)CNC(=O)[C@H](CCCNC(=N)N)NC(=O)[C@H](CCC(=O)O)NC(=O)[C@H](CCC(N)=O)NC(=O)[C@H](CC(C)C)NC(=O)[C@H](CC(=O)O)NC(=O)[C@@H](N)[C@@H](C)O)C(=O)N[C@@H](CO)C(=O)N1CCC[C@H]1C(=O)N[C@@H](Cc1ccccc1)C(=O)N[C@@H](CO)C(=O)NCC(=O)N[C@@H](CC(=O)O)C(=O)NCC(=O)N[C@@H](CCC(N)=O)C(=O)N1CCC[C@H]1C(=O)N[C@@H](Cc1ccccc1)C(=O)N[C@@H](CCCCN)C(=O)N[C@@H](CC(=O)O)C(N)=O [TPX-100] (H-TDLQERGDNDISPFSGDGQPFKD-NH2; N-terminus assumed)
Tolerability [1]: well tolerated in both studies
Dose-limiting toxicities ([2]; Part A, 20, 50, 100 and 200 mg per injection): no dose-limiting toxicities
Severe adverse events ([2]; human, in vivo): no severe adverse events that were related to TPX-100 treatment
Treatment-related adverse events ([2]; human, in vivo): mild or moderate, transient
Safety and tolerability ([2]; intra-articular, Days 0, 7, 14, 21): safe and well tolerated
Safety and tolerability [3]: safe and well-tolerated

N#Cc1c(N(CC(=O)[O-])CC(=O)[O-])sc(C(=O)[O-])c1CC(=O)[O-].[Sr+2].[Sr+2] [strontium ranelate]
Adverse effect [4]: increase the risk of myocardial infarction

PDLLVRGDNDVPPFSGDGQHFMH [rat orthologue, TPX-100 orthologue (Rat/Mouse)]
Tritium-thymidine incorporation [5]: promote tritium-thymidine incorporation
